Marks after values point to notes of the source that are not given here.
Legend:
Aβ = test: Effect of agents on Cu^2+-induced SDS-resistant Aβ polymerization; format: biochemical, human
Description: Cu^2+-induced SDS-resistant oligomerization of Aβ: Aβ (2.5 μM), 150 mM NaCl, 20 mM hepes (pH 6.6, 7.4, 9) with or without ZnCl2 or CuCl2. Following incubation (37° C.), aliquots of each reaction (2 ng peptide) were collected at 0 d, 1 d, 3 d and 5 d and western blotted using anti-Aβ monoclonal antibody 8E10 (FIG. 9). Migration of the molecular size markers are indicated (kDa). […] Cu^2+ (2-30 μM) induced SDS-resistant polymerization of peptide. […] It should be noted that other means of visualizing and/or determining the presence or absence of polymerization other than western blot analysis may be used. Such other means include but are not limited to density sedimentation by centrifugation of the samples.
It is possible that the decreased polymerization may be due to chelation of Cu^2+ by BC, however given the low binding affinity of BC for Cu^2+ compared with Aβ, it seems likely that the chelation of Cu^+ by BC prevents it from inducing SDS-resistant Ad polymerization. Therefore, Aβ may undergo a hydroxyl radical modification that promotes its assembly into SDS-resistant polymers.

[1] = cited from earlier work
[2] = Residual metals in post-centrifugation pellets of brain homogenates (ICP-AES); format: biochemical, human; set-up: Residual Metal Levels, Mg: unit not given here; conditions: for Residual Al in extracted pellet / Residual Ca in extracted pellet / Residual Cu in extracted pellet / Residual Fe in extracted pellet / Residual Mg in extracted pellet / Residual Zn in extracted pellet: Table 6
[3] = cited from earlier work; remark: listed apart in the source
[4] = cited from earlier work; remark: listed apart in the source
[5] = test system: Aβ deposits of AD-affected brain; test: Extraction (solubilization) of Aβ from post-mortem AD brain tissue homogenates, western blot densitometry; format: biochemical, human; conditions: for Effect of Chelators upon extraction of Aβ (% change from control): mean n = 6 AD brain samples, above PBS extraction alone
Description: Identical regions of frontal cortex (0.5 g) from post-mortem brains of individuals with AD, as well as non-AD conditions, were homogenized in TBS, […] ±metal chelators.
0.5 g of prefrontal cortex was dissected and homogenized in PBS ±chelator as indicated. The homogenate was then centrifuged (100,000 g) and the supernatant removed, and a sample taken for western blot assay using anti-Aβ specific antibodies after Tricine PAGE. Densitometry was performed against synthetic peptide standards.
Densitometry of Aβ western blots (FIGS. 19A-19C) was performed for a series of 6 AD brain samples homogenized in the presence of chelators as indicated.
Next the ability of clioquinol to extract Aβ deposits from human brain was examined. […] Fragments of prefrontal cortex from individual post-mortem samples with the histopathological diagnosis of AD were homogenized in PBS, pH 7.4, and then pelleted after centrifugation. The pellets were then washed with agitation twice for 30 minutes, 4° C., with PBS or PBS containing clioquinol (100% =0.8 μM clioquinol). The suspension was then pelleted (10,000 g for 30 minutes) and the supernatant removed (S1) for western blot analysis using Aβ-specific antibodies (illustrated). The pellet was treated a second time in this experiment with agitation and centrifugation, and the second supernatant (S2) analysed.
Soluble Aβ (ng/g tissue) was determined as described. Total Aβ was determined following formic acid extraction of otherwise untreated tissue.
(§1) Suitable quantities of gray matter from each subject were minced to serve as pools of homogenous tissue. […] To obtain the soluble fraction, the homogenates were centrifuged at 100,000× g for 30 min (Beckman J180, Beckman instruments, Fullerton, California) and the supernatant collected in 1 ml aliquots and stored on ice or immediately frozen at −70° C. In each experiment, all protein was precipitated from 1 ml of supernatant from each treatment group using 1:5 ice cold 10% trichloracetic acid and pelleted in a bench top microfuge (Heraeus, Osteroder, Germany) at 10,000× g. The remaining pellet was frozen at −70° C.
Precipitated protein was subjected to SDS polyacrylamide gel electrophoresis (SDS-PAGE) on Novex pre-cast 10-20% Tris-Tricine gels followed by Western transfer onto 0.2 μm nitrocellulose membrane (Biorad, Hercules, Calif.). […] Each gel included two or more lanes containing known quantities of synthetic Aβ which served as internal reference standards. Blot images were captured by a Relisys scanner with transparency adapter (Teco Information Systems, Taiwan, ROC) and densitometry conducted using the NIH Image 1.6 program (National Institutes for Health, USA. Modified for PC by Scion Corporation, Frederick, Md.), calibrated using a step diffusion chart. For quantitation of Aβ in brain extracts, the internal reference standards of synthetic Aβ were utilized to produce standard curves from which values were interpolated.

[6] = Table 1; K=[ML]/[M][L]; cited from earlier work
[7] = Table 1; K=[ML]/[M][L]; cited from earlier work; remark: listed apart in the source
[8] = test system: Aβ deposits of age-matched control brain; test: Extraction of Aβ from age-matched non-AD control brain tissue; format: biochemical, human; conditions: chelator 2 mM
Description: as §1
Precipitated protein was subjected to SDS polyacrylamide gel electrophoresis (SDS-PAGE) on Novex pre-cast 10-20% Tris-Tricine gels followed by Western transfer onto 0.2 μm nitrocellulose membrane (Biorad, Hercules, Calif.). Aβ was detected using the WO2, G210 or G211 monoclonal antibodies (Ida, N., et al., J. Biol. Chem., 271:22908 (1996)) in combination with HRP-conjugated rabbit anti-mouse IgG (Dako, Denmark), and visualized using chemiluminescence (ECL, Amersham Life Science, Little Chalfont, Buckinghamshire, UK). Each gel included two or more lanes containing known quantities of synthetic Aβ which served as internal reference standards. Blot images were captured by a Relisys scanner with transparency adapter (Teco Information Systems, Taiwan, ROC) and densitometry conducted using the NIH Image 1.6 program (National Institutes for Health, USA. Modified for PC by Scion Corporation, Frederick, Md.), calibrated using a step diffusion chart. For quantitation of Aβ in brain extracts, the internal reference standards of synthetic Aβ were utilized to produce standard curves from which values were interpolated.

[9] = cited from earlier work; remark: listed apart in the source
[10] = Table 1; K=[ML]/[M][L]; cited from earlier work; remark: listed apart in the source
[11] = Table 3, TPEN 0.1 mM, AD (n=6) and healthy controls (n=4)
[12] = Table 7, 10 AD specimens, 0.1 mM TPEN

Compound: Cl.O=C(O)CCP(CCC(=O)O)CCC(=O)O [TCEP, Tris(2-Carboxyethyl)-Phosphine Hydrochloride]
- effect on Cu^2+-induced SDS-resistant Aβ polymerization (Aβ): significantly reduced the level of polymerization

Compound: c1ccc(CN(CCN(Cc2ccccn2)Cc2ccccn2)Cc2ccccn2)nc1 [TPEN, N,N,N′,N′-tetrakis [2-pyridyl-methyl] ethylenediamine]
- LogK, Zn ([1]; Table 1, K=[ML]/[M][L]): 15.4
- Stability constant logK10, Zn ([1]; Table 5, NIST database): 15.4
- Residual Al in pellet [2, 11]: 65 mg/kg
- Residual Ca in pellet [2, 11]: (210) mg/kg
- Residual Cu in pellet [2, 11]: 9.8 mg/kg
- Residual Fe in pellet [2, 11]: 239 mg/kg
- Residual Mg in pellet [2, 11]: 230 mg/kg
- Residual Zn in pellet [2, 11]: 33.2* mg/kg
- Residual Al in extracted pellet ([2]; chelator 0.001 mM): 34 mg/kg
- Residual Ca in extracted pellet ([2]; chelator 0.001 mM): 490 mg/kg
- Residual Cu in extracted pellet ([2]; chelator 0.001 mM): 12 mg/kg
- Residual Fe in extracted pellet ([2]; chelator 0.001 mM): 512 mg/kg
- Residual Mg in extracted pellet ([2]; chelator 0.001 mM): 192 mg/kg
- Residual Zn in extracted pellet ([2]; chelator 0.001 mM): 42 mg/kg
- Residual Al in extracted pellet ([2]; chelator 0.004 mM): 22 mg/kg
- Residual Ca in extracted pellet ([2]; chelator 0.004 mM): 322 mg/kg
- Residual Cu in extracted pellet ([2]; chelator 0.004 mM): 10 mg/kg
- Residual Fe in extracted pellet ([2]; chelator 0.004 mM): 317 mg/kg
- Residual Mg in extracted pellet ([2]; chelator 0.004 mM): 147 mg/kg
- Residual Zn in extracted pellet ([2]; chelator 0.004 mM): 28 mg/kg
- Residual Al in extracted pellet ([2]; chelator 0.04 mM): 22 mg/kg
- Residual Ca in extracted pellet ([2]; chelator 0.04 mM): 956 mg/kg
- Residual Cu in extracted pellet ([2]; chelator 0.04 mM): 10 mg/kg
- Residual Fe in extracted pellet ([2]; chelator 0.04 mM): 322 mg/kg
- Residual Mg in extracted pellet ([2]; chelator 0.04 mM): 201 mg/kg
- Residual Zn in extracted pellet ([2]; chelator 0.04 mM): 22 mg/kg
- Residual Al in extracted pellet ([2]; chelator 0.1 mM): 60 mg/kg
- Residual Ca in extracted pellet ([2]; chelator 0.1 mM): 708 mg/kg
- Residual Cu in extracted pellet ([2]; chelator 0.1 mM): 12 mg/kg
- Residual Fe in extracted pellet ([2]; chelator 0.1 mM): 389 mg/kg
- Residual Mg in extracted pellet ([2]; chelator 0.1 mM): 200 mg/kg
- Residual Zn in extracted pellet ([2]; chelator 0.1 mM): 21 mg/kg
- Residual Al in extracted pellet ([2]; chelator 2.0 mM): 148 mg/kg
- Residual Ca in extracted pellet ([2]; chelator 2.0 mM): 419 mg/kg
- Residual Cu in extracted pellet ([2]; chelator 2.0 mM): 11 mg/kg
- Residual Fe in extracted pellet ([2]; chelator 2.0 mM): 376 mg/kg
- Residual Mg in extracted pellet ([2]; chelator 2.0 mM): 200 mg/kg
- Residual Zn in extracted pellet ([2]; chelator 2.0 mM): 19 mg/kg
- Residual Al in extracted pellet ([2]; chelator 5.0 mM): 16 mg/kg
- Residual Ca in extracted pellet ([2]; chelator 5.0 mM): 377 mg/kg
- Residual Cu in extracted pellet ([2]; chelator 5.0 mM): 10 mg/kg
- Residual Fe in extracted pellet ([2]; chelator 5.0 mM): 307 mg/kg
- Residual Mg in extracted pellet ([2]; chelator 5.0 mM): 205 mg/kg
- Residual Zn in extracted pellet ([2]; chelator 5.0 mM): 17 mg/kg
- Residual Metal Levels, Al [2, 12]: 65
- Residual Metal Levels, Ca [2, 12]: 210
- Residual Metal Levels, Cu [2, 12]: 9.8
- Residual Metal Levels, Fe [2, 12]: 239
- Residual Metal Levels, Mg [2, 12]: 230
- Residual Metal Levels, Zn [2, 12]: 33.2
- LogK, Ca ([3]; Table 1, K=[ML]/[M][L]): 3.0
- Stability constant logK10, Ca ([3]; Table 5, NIST database): 3
- LogK, Fe ([4]; Table 1, K=[ML]/[M][L]): 14.4
- Stability constant logK10, Fe ([4]; Table 5, NIST database): 14.4
- Effect of Chelators upon extraction of Aβ (% change from control) ([5]; 0.1 mM chelator): 182%
- Effect of Chelators upon extraction of Aβ (% change from control) ([5]; 2.0 mM chelator): 241%
- mean increase of Aβ solubilization over PBS alone ([5]; 6 AD brains, 0.1 or 2.0 mM): around 2 fold
- Extractable Aβ ([5]; AD subject 1, chelator 2 mM): 0.21 µg/g
- Extractable Aβ (% of total) ([5]; AD subject 1, chelator 2 mM): (0.2) %
- Extractable Aβ ([5]; AD subject 2, chelator 2 mM): 3.40 µg/g
- Extractable Aβ (% of total) ([5]; AD subject 2, chelator 2 mM): (4.4) %
- Extractable Aβ ([5]; AD subject 3, chelator 2 mM): 1.80 µg/g
- Extractable Aβ (% of total) ([5]; AD subject 3, chelator 2 mM): (2.25) %
- Extractable Aβ ([5]; AD subject 4, chelator 2 mM): 5.50 µg/g
- Extractable Aβ (% of total) ([5]; AD subject 4, chelator 2 mM): (9.2) %
- Extractable Aβ ([5]; AD subject 5, chelator 2 mM): 5.00 µg/g
- Extractable Aβ (% of total) ([5]; AD subject 5, chelator 2 mM): (3.5) %
- Extractable Aβ ([5]; AD subject 6, chelator 2 mM): 0.28 µg/g
- Extractable Aβ (% of total) ([5]; AD subject 6, chelator 2 mM): (1.75) %
- Extractable Aβ (% of total), X (mean) ([5]; AD subjects 1-6, chelator 2 mM): (4.6) %
- Extractable Aβ, X (mean) ([5]; AD subjects 1-6, chelator 2 mM): 2.73 µg/g
- X C/PBS (mean chelator / PBS) ([5]; AD tissue, chelator 2 mM): 2.60
- efficiency in extracting Aβ ([5]; neutral saline buffer, TPEN 5 μM): highly efficient
- LogK, Mg [6]: 0
- LogK, Al [7]: 0
- Extractable Aβ ([8]; AC subject 1): 0.22 µg/g
- Extractable Aβ (% of total) ([8]; AC subject 1): (32.0) %
- Extractable Aβ ([8]; AC subject 2): 0.38 µg/g
- Extractable Aβ (% of total) ([8]; AC subject 2): (9.0) %
- Extractable Aβ ([8]; AC subject 3): 0.26 µg/g
- Extractable Aβ (% of total) ([8]; AC subject 3): (9.7) %
- Extractable Aβ ([8]; AC subject 4): 0.09 µg/g
- Extractable Aβ (% of total) ([8]; AC subject 4): (3.0) %
- Extractable Aβ ([8]; AC subject 5): 1.06 µg/g
- Extractable Aβ (% of total) ([8]; AC subject 5): (29.5) %
- Extractable Aβ (% of total), X (mean) ([8]; AC subjects 1-5): (16.7) %
- Extractable Aβ, X (mean) ([8]; AC subjects 1-5): 0.40 µg/g
- X C/PBS (mean chelator / PBS) ([8]; age-matched control tissue): 1.6
- LogK, Cu ([9]; Table 1, K=[ML]/[M][L]): 20.2
- Stability constant logK10, Cu ([9]; Table 5, NIST database): 20.2
- LogK, Co [10]: 0

Compound: O=S([O-])S(=O)(=O)[O-].[Na+].[Na+] [sodium metabisulfite]
- effect on Cu^2+-induced SDS-resistant Aβ polymerization (Aβ): moderately attenuates

Reference: patent US20020082273A1, “Agents for use in the treatment of alzheimer's disease” (priority 1998, published 2002)
